The values that follow come from ChEMBL document CHEMBL5465560, “Selectivity Literature for EUbOPEN Chemogenomic Library” (2024).

Assay [1] deals with T1, Serine/threonine-protein kinase TAO2 (Homo sapiens) (UniProt Q9UL54).
T1 sequence (whole entry): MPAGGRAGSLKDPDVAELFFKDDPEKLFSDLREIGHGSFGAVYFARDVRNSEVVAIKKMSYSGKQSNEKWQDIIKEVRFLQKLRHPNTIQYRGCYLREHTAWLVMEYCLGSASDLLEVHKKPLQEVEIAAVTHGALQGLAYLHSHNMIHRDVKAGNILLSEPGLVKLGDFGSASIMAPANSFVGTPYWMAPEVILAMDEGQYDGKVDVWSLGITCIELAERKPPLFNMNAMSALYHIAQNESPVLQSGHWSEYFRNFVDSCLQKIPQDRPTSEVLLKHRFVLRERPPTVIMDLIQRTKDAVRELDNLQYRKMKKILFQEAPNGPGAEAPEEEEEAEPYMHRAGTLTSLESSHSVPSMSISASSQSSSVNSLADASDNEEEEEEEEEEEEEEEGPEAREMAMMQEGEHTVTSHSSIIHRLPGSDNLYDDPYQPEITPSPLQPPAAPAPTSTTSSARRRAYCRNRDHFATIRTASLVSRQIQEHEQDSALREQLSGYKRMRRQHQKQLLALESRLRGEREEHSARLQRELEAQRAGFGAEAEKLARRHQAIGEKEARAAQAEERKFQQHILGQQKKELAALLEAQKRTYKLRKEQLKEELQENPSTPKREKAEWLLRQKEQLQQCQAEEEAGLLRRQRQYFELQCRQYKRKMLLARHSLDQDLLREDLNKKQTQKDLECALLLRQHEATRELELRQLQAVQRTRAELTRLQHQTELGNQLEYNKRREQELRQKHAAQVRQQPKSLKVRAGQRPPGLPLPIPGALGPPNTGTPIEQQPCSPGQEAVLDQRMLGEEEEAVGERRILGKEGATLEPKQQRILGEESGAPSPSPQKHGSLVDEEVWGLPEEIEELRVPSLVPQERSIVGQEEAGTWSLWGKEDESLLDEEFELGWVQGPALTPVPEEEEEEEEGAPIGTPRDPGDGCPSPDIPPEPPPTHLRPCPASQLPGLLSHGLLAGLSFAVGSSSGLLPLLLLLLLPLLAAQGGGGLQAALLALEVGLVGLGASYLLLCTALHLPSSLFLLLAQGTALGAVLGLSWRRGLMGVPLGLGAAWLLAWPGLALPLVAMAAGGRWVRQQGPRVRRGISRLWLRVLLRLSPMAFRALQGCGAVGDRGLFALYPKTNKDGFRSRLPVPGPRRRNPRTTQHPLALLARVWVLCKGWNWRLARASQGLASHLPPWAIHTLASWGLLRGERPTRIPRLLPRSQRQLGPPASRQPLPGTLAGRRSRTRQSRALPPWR
As to the kind of experiment: Selectivity interaction (KinomeScan (DiscoverX)) EUB0000607a TAOK2. To be noted: at 10 µM.

Assay [2] has as its target Serine/threonine-protein kinase MARK2 (Homo sapiens) (UniProt Q7KZI7). In words: Selectivity interaction (KinomeScan (DiscoverX)) EUB0000607a MARK2. To be noted: at 10 µM.
Assay [3] has as its target T2, Receptor-interacting serine/threonine-protein kinase 1 (Homo sapiens) (UniProt Q13546).
T2 sequence (whole entry): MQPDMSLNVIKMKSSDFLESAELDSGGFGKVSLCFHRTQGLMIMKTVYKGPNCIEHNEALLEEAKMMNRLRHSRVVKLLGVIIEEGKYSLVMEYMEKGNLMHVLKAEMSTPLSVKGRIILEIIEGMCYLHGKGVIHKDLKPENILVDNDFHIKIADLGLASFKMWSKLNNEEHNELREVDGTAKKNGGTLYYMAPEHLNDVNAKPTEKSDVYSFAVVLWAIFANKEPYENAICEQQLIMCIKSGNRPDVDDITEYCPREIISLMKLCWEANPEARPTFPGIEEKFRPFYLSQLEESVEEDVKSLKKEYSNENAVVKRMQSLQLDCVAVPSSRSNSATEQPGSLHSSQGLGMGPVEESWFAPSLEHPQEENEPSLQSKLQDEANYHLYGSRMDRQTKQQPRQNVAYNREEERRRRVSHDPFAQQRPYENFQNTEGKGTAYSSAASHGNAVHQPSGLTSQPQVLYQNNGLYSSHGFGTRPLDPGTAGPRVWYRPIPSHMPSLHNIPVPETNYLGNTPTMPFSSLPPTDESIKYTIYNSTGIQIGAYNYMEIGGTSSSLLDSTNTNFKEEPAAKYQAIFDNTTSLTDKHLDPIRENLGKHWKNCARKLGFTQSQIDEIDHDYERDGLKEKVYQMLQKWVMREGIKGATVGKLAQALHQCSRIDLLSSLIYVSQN
To be noted: at 10 µM.

Assay [4] has as its target Casein kinase I isoform delta (Homo sapiens, UniProt P48730). As to the kind of experiment: Selectivity interaction (ProQinase) EUB0000171b CSNK1D.
Assay [5] concerns the target Mitogen-activated protein kinase 6 (Homo sapiens) (UniProt Q16659). As to the kind of experiment: Selectivity interaction (KinomeScan (DiscoverX)) EUB0001049a MAPK6. Conditions: at 1 µM.
Assay [6] has as its target T3, cGMP-dependent protein kinase 1 (Homo sapiens) (UniProt Q13976).
T3 sequence (whole entry): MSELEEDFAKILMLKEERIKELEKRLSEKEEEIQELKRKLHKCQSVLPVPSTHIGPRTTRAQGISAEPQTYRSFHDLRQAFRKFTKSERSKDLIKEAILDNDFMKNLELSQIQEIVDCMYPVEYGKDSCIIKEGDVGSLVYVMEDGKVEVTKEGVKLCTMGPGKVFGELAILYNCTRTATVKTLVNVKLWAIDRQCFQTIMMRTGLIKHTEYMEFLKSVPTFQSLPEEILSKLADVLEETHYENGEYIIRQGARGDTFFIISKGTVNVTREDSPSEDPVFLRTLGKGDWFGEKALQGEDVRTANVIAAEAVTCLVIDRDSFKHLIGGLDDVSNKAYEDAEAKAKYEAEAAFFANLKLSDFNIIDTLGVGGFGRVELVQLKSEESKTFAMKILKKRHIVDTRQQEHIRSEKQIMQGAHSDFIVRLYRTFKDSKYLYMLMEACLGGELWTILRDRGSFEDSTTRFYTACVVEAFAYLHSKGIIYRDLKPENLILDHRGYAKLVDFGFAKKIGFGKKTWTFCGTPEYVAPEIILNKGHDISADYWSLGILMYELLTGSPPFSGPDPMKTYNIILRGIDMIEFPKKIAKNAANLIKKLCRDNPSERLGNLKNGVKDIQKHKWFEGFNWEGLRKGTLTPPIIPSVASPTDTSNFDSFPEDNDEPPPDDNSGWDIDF
In words: Selectivity interaction (KinomeScan (DiscoverX)) EUB0000618a PRKG1. To be noted: at 10 µM.

Assay [7] concerns the target T3, cGMP-dependent protein kinase 1 (Homo sapiens). In words: Selectivity interaction (KinomeScan (DiscoverX)) EUB0000092b PRKG1. Conditions: at 10 µM.
Assay [8] deals with Histone-lysine N-methyltransferase, H3 lysine-36 specific (Homo sapiens) (UniProt Q96L73). As to the kind of experiment: Selectivity interaction (Methyltransferase screen (radiometric assays, panel of 8 PRMTs, 21 protein lysine methyltransferases, 3 DNA methyltransferases, and one RNA methyltransferase)) EUB0000271b NSD1.

Each structure is given as a SMILES string.

Casein kinase I isoform delta, sequence (P48730 whole entry, looked up, canonical isoform): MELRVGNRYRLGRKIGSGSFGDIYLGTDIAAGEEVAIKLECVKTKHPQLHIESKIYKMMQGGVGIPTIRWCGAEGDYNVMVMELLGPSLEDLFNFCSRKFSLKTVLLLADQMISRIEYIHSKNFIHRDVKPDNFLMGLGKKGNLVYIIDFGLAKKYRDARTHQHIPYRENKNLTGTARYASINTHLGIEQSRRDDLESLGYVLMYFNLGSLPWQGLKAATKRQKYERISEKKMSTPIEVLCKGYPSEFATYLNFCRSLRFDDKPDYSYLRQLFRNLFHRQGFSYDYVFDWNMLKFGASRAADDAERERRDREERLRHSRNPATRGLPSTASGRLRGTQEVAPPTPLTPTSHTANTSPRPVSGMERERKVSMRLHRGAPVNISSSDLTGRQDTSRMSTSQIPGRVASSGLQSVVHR
Histone-lysine N-methyltransferase, H3 lysine-36 specific (Homo sapiens), sequence (Q96L73 whole entry): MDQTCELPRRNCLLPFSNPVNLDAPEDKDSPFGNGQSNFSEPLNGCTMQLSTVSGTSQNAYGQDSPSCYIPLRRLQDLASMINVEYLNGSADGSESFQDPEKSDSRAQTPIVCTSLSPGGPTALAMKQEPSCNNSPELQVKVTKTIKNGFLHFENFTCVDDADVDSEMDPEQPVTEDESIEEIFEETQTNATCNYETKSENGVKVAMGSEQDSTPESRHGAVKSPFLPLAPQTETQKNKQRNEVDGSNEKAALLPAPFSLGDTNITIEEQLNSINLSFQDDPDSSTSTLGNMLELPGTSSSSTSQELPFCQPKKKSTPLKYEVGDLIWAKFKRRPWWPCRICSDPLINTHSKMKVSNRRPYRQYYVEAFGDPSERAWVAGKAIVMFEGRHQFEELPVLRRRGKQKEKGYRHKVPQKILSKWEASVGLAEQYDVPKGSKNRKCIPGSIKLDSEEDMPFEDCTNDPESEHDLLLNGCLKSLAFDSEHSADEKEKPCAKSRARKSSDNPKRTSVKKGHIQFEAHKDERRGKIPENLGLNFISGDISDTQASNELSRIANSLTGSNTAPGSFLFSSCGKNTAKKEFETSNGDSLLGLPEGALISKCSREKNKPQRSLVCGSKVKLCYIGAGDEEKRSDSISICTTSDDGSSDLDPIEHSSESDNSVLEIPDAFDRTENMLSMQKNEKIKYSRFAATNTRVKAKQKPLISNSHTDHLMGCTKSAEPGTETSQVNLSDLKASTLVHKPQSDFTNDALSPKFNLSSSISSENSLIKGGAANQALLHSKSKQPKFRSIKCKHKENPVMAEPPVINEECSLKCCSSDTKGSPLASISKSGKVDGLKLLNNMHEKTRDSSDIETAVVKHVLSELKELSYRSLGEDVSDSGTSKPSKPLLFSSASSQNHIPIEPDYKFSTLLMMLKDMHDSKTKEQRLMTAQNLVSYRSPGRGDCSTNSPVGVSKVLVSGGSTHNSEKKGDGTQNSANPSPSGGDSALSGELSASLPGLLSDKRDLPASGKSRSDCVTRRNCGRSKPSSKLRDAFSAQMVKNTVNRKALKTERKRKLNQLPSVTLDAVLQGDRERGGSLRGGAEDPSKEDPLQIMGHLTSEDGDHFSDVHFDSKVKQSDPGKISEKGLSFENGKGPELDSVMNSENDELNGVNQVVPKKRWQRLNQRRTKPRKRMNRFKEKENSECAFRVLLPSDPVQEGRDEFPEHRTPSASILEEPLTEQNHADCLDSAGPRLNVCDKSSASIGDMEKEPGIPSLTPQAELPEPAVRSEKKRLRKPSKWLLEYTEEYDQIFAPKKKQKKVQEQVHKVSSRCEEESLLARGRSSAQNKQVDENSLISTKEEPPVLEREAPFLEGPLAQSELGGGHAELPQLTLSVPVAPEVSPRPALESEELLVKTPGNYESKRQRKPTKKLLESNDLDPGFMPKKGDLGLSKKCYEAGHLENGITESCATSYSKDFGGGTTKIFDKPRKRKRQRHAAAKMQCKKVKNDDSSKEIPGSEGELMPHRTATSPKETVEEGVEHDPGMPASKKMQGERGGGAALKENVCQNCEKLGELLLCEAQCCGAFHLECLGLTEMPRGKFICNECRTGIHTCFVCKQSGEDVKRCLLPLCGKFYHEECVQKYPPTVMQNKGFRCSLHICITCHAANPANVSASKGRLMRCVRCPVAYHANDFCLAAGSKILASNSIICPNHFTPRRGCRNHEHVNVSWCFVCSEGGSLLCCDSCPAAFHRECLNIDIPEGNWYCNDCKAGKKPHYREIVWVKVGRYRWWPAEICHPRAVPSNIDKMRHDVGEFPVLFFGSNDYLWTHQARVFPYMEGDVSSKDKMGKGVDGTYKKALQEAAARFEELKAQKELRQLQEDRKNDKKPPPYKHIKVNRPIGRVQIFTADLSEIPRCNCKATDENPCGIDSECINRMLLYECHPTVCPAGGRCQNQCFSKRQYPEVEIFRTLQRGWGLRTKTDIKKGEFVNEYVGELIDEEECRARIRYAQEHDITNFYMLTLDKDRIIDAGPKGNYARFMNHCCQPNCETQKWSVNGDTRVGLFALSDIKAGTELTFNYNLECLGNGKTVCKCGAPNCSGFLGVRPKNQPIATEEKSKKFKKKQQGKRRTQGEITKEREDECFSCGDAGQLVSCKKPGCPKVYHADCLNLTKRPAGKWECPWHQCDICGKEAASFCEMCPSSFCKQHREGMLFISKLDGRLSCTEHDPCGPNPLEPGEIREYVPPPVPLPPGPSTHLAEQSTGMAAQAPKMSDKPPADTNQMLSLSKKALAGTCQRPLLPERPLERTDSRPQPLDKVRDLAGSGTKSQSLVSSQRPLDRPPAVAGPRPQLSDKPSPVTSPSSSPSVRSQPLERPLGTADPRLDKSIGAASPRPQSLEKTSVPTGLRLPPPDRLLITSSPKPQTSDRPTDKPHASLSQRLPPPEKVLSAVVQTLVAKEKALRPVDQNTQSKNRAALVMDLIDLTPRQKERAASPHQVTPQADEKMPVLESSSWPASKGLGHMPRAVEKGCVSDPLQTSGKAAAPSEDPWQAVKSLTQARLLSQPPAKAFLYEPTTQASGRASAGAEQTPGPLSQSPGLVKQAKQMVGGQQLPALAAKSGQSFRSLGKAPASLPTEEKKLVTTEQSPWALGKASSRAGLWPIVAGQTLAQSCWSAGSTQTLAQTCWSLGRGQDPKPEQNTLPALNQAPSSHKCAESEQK
Serine/threonine-protein kinase MARK2 (Homo sapiens), sequence (Q7KZI7 whole entry): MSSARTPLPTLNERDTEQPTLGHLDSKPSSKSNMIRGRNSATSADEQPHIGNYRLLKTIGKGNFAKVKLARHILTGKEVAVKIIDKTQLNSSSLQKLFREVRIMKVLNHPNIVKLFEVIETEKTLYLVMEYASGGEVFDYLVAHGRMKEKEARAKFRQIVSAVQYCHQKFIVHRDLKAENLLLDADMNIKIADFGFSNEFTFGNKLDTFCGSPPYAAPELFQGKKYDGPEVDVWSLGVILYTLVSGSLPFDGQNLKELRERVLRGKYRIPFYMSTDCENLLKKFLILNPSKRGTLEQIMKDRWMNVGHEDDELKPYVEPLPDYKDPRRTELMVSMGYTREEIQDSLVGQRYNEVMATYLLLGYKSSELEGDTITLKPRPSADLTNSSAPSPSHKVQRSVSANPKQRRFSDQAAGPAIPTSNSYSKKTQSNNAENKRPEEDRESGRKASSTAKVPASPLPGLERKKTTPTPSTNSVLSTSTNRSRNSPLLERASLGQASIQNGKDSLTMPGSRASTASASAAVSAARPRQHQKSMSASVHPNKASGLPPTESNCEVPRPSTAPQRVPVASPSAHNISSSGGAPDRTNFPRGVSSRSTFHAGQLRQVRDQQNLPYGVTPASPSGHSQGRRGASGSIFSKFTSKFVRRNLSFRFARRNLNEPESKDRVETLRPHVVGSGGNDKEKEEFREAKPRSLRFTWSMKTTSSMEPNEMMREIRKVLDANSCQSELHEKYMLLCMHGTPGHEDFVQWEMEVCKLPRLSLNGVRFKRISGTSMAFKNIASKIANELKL
Mitogen-activated protein kinase 6 (Homo sapiens), sequence (Q16659 whole entry): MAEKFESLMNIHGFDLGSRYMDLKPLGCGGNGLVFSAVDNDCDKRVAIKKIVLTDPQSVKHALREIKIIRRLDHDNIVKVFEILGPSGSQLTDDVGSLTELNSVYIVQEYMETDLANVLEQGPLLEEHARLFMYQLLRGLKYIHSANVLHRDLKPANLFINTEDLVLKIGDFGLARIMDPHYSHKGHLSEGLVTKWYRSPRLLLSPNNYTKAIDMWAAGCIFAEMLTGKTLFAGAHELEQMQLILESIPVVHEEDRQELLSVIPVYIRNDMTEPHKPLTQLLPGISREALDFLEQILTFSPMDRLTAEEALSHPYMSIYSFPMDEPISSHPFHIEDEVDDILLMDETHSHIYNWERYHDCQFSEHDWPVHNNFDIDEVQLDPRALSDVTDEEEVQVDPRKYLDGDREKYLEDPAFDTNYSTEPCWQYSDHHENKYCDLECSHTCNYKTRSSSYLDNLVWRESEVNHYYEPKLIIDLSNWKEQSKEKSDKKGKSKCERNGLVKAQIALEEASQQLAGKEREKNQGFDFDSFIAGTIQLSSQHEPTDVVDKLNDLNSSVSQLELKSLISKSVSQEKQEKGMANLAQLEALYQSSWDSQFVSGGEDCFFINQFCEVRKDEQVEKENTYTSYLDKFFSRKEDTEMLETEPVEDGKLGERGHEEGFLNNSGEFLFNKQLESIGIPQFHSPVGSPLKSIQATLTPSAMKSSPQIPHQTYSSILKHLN

In the case of `CNC(=O)Nc1ccc(-c2nc(N3CC4CCC(C3)O4)c3cnn(C4CCC5(CC4)OCCO5)c3n2)cc1`, the % of control in assay [1] and in assay [2] was 100% in each case.

Take `Cc1cc([C@@H](C)Nc2ccccc2C(=O)O)c2nc(N3CCOCC3)cc(=O)n2c1` [AZD-6482]: the % of control in assay [3] is 100%.

With `C=CC(=O)Nc1cccc(C(=O)Nc2ccc(Nc3cc(-c4[nH]c(SC)nc4C)ccn3)cc2)c1`, the % of control in assay [4] (at 1 µM) is 13%; in assay [4] (at 5 µM) it was 3%.

For `COc1cc(Nc2nc(C)cc(-c3cnn4nc(OC)ccc34)n2)cc(C(F)(F)F)c1`, in assay [5], the % of control turned out to be 92%.

`O[C@H]1CC[C@H](Nc2ncc3nc(Nc4c(F)cc(F)cc4F)n([C@H]4CCOC4)c3n2)CC1` displayed a % of control in assay [6] of 100%.

`CCC(=O)N1CCN(c2ccc(-n3c(=O)ccc4cnc5ccc(-c6cnc7ccccc7c6)cc5c43)cc2C(F)(F)F)CC1` had a % of control in assay [7] of 86%.

In the case of `Cc1cc(C)cc([C@@H]2c3cc(C)ccc3NC(=O)CN2C(=O)c2ccc(Br)s2)c1`, the % of activity in assay [8] (at 1 µM) was 97%; in assay [8] (at 10 µM), 103%.
